Laboratory results reported in ChEMBL document CHEMBL1151581, “New dipeptide isosteres useful for the inhibition of HIV-1 protease” (Bioorg Med Chem Lett, 1994).

How the values were obtained:
CCRF-CEM = assay: Concentration required for antiviral activity using infected CEM cells; type: functional, cell-based; details: Homo sapiens
[1] = target: Human immunodeficiency virus type 1 protease (Human immunodeficiency virus 1, UniProt Q72874); assay: Concentration required for in vitro inhibition of HIV-1 protease

SMILES | IC50 (CCRF-CEM) | IC50 [1]
Cc1ccc(C[C@@H](O)[C@H](Cc2ccccc2)NC(=O)[C@H](CC(N)=O)NC(=O)c2ccc3ccccc3n2)c(C(=O)NC(C)(C)C)c1 | 20 nM | –
CC(C)(C)NC(=O)c1cc2ccccc2cc1C[C@@H](O)[C@H](Cc1ccccc1)NC(=O)[C@H](CC(N)=O)NC(=O)c1ccc2ccccc2n1 | 980 nM | 149 nM
Cc1cccc(C[C@@H](O)[C@H](Cc2ccccc2)NC(=O)[C@H](CC(N)=O)NC(=O)c2ccc3ccccc3n2)c1C(=O)NC(C)(C)C | 920 nM | 28 nM
Cc1ccc(C(=O)NC(C)(C)C)c(C[C@@H](O)[C@H](Cc2ccccc2)NC(=O)[C@H](CC(N)=O)NC(=O)c2ccc3ccccc3n2)c1 | 610 nM | 2.2 nM
CC(C)(C)NC(=O)c1c(C[C@@H](O)[C@H](Cc2ccccc2)NC(=O)[C@H](CC(N)=O)NC(=O)c2ccc3ccccc3n2)ccc2ccccc12 | 190 nM | 3.5 nM
